The record followed here is patent US20040002476A1, “Modified fluorinated nucleoside analogues” (priority 2002, published 2004).

The test relates to HCV replicon. The experiment in a line: HCV replicon system in Huh7 cells (Q-RT-PCR of replicon RNA). To be noted: Hepatitis C virus, Huh-7, 96 h. (In antiviral work, replicon cells carry a viral genome segment that copies itself.)
[1] abbreviates: read-out: average EC90 value, corrected for cellular toxicity (ΔΔCt vs rDNA/rRNA).

Like-named read-outs stand apart in the source and are kept apart here.

Protocol: Antiviral testing of candidate compounds for Flaviviridae: The HCV replicon system in Huh7 cells.
Add the test compound immediate after seeding the cells and incubate for a period of 3 to 7 days at 37° C. in an incubator. Media is then removed, and the cells are prepared for total nucleic acid extraction (including replicon RNA and host RNA). Replicon RNA can then be amplified in a Q-RT-PCR protocol, and quantified accordingly. […] In such experiments, one way to express the antiviral effectiveness of a compound is to subtract the threshold RT-PCR cycle of the test compound with the average threshold RT-PCR cycle of the negative control. This value is called DeltaCt (ΔCt or DCt). […] As a positive control, recombinant interferon alfa-2a (Roferon-A, Hoffmann-Roche, New Jersey, USA) is taken alongside as positive control.
In a typical setting, a compound might reduce both the host RNA polymerase activity and the replicon-encoded polymerase activity. Therefore, quantification of rRNA (or any other host RNA polymerase I product) or beta-actin mRNA (or any other host RNA polymerase II) and comparison with RNA levels of the no-drug control is a relative measurement of the effect of the test compound on host RNA polymerases.
With the availability of both the HCV ΔCt data and the rRNA ΔCt, a specificity parameter can be introduced. This parameter is obtained by subtracting both ΔCt values from each other.
In another typical setting, a compound might reduce the host RNA polymerase activity, but not the host DNA polymerase activity. Therefore, quantification of rDNA or beta-actin DNA (or any other host DNA fragment) and comparison with DNA levels of the no-drug control is a relative measurement of the inhibitory effect of the test compound on cellular DNA polymerases
With the availability of both the HCV ΔCt data and the rDNA ΔCt, a specificity parameter can be introduced. This parameter is obtained by subtracting both ΔCt values from each other. […] However, compounds with a ΔΔCt value of less than 2, but with limited molecular cytotoxicty (rDNA ΔCT between 0 and 2) may be desired. […]

With `Nc1ccn([C@@H]2O[C@H](CO)[C@@H](O)[C@H]2F)c(=O)n1` [2′-Deoxy-2′F-Cytidine, 2′-deoxy-2′-fluorocytidine], the EC90 runs as follows: (read-out: EC90 (1-log reduction of replicon HCV RNA, 3.3 Ct) (converted)) approximately 5 µM; under setting [1], approximately 10 µM.
Turning to `Nc1ccn([C@@H]2O[C@H](CO)[C@@H](O)C2(F)F)c(=O)n1` [Gemcitabine, β-D-2′,2′-difuoro-2′ deoxycytidine, reference compound], the EC90 under setting [1] was approximately 0.3 µM.
